Values after ≈ are worked out from the molar mass of the structure shown. Each block holds one compound with its values, some of them ahead of it. Active and inactive are the calls of the source. The calls are words filed in the database; no cut-off is given here.
Assays:
[1] = Solubility of the compound; assay type: physicochemical
[2] = Volume of distribution in Wistar rat at 5 mg/kg, iv; assay type: ADME, organism-based; parameters: dose 5 mg/kg, route intravenous; conditions: in vivo
[3] = AUC in Wistar rat at 5 mg/kg, iv; assay type: ADME, organism-based; parameters: dose 5 mg/kg, route intravenous; conditions: plasma
[4] = Half life in Wistar rat at 5 mg/kg, iv; assay type: ADME, organism-based; parameters: dose 5 mg/kg, route intravenous; conditions: in vivo
[5] = test system: Rattus norvegicus; test: Cmax in Wistar rat at 50 mg/kg, po; assay type: ADME, organism-based; parameters: dose 50 mg/kg, route oral; conditions: in vivo
[6] = AUC in Wistar rat at 50 mg/kg, po; assay type: ADME, organism-based; parameters: dose 50 mg/kg, route oral; conditions: plasma
[7] = Tmax in Wistar rat at 50 mg/kg, po; assay type: ADME, organism-based; parameters: dose 50 mg/kg, route oral; conditions: in vivo
[8] = Oral bioavailability in Wistar rat at 50 mg/kg; assay type: ADME, organism-based; conditions: in vivo
[9] = test system: Rattus norvegicus; test: Antiobesity activity in po dosed diet induced obese Sprague-Dawley rat model assessed as reduction in weight gain administered qd for 3 weeks relative to vehicle treated control; assay type: functional, organism-based
[10] = test system: Rattus norvegicus; test: Antiobesity activity in diet induced obese Sprague-Dawley rat model assessed as reduction in weight gain at 25 mg/kg, po qd for 3 weeks measured on day 21 relative to vehicle treated control; assay type: functional; parameters: scale not given: the % may be the effect or the level left
[11] = test system: Rattus norvegicus; test: Antiobesity activity in diet induced obese Sprague-Dawley rat model assessed as reduction in weight gain at 50 mg/kg, po qd for 3 weeks measured on day 21 relative to vehicle treated control; assay type: functional; parameters: scale not given: the % may be the effect or the level left
[12] = Cmax in diet induced obese Sprague-Dawley rat model at 5 mg/kg, po qd for 3 weeks measured on day 21; assay type: ADME, organism-based; parameters: dose 5 mg/kg, route oral; conditions: in vivo
[13] = Cmax in diet induced obese Sprague-Dawley rat model at 25 mg/kg, po qd for 3 weeks measured on day 21; assay type: ADME, organism-based; parameters: dose 25 mg/kg, route oral; conditions: in vivo
[14] = test system: Rattus norvegicus; test: Cmax in diet induced obese Sprague-Dawley rat model at 50 mg/kg, po qd for 3 weeks measured on day 21; assay type: ADME, organism-based; parameters: dose 50 mg/kg, route oral; conditions: in vivo, 504 h
[15] = test system: Rattus norvegicus; test: Antiobesity activity in diet induced obese Sprague-Dawley rat model assessed as reduction in plasma triglycerides level at 50 mg/kg, po qd for 3 weeks measured on day 21 relative to vehicle treated control; assay type: functional; parameters: scale not given: the % may be the effect or the level left
[16] = test system: Rattus norvegicus; test: Antiobesity activity in diet induced obese Sprague-Dawley rat model assessed as reduction in plasma free fatty acid level at 50 mg/kg, po qd for 3 weeks measured on day 21; assay type: functional, organism-based; parameters: dose 50 mg/kg
[17] = test system: Rattus norvegicus; test: Antiobesity activity in diet induced obese Sprague-Dawley rat model assessed as reduction in total cholesterol level at 50 mg/kg, po qd for 3 weeks measured on day 21; assay type: functional, organism-based; parameters: dose 50 mg/kg
[18] = test system: Rattus norvegicus; test: Antiobesity activity in diet induced obese Sprague-Dawley rat model assessed as decrease in fat pad mass at 50 mg/kg, po qd for 3 weeks measured on day 21 relative to vehicle treated control; assay type: functional, organism-based; parameters: dose 50 mg/kg
[19] = test system: Rattus norvegicus; test: Antiobesity activity in diet induced obese Sprague-Dawley rat model assessed as decrease in lean muscle at 50 mg/kg, po qd for 3 weeks measured on day 21 relative to vehicle treated control; assay type: functional, organism-based; parameters: dose 50 mg/kg
[20] = test system: Rattus norvegicus; test: Toxicity in diet induced obese Sprague-Dawley rat model assessed as change in liver weight administered orally after 22 days; assay type: organism-based; conditions: in vivo, po, 528 h
[21] = test system: Rattus norvegicus; test: Toxicity in diet induced obese Sprague-Dawley rat model assessed as change in heart weight administered orally after 22 days; assay type: organism-based; conditions: in vivo, po, 528 h
[22] = test system: Rattus norvegicus; test: Toxicity in diet induced obese Sprague-Dawley rat model assessed as change in brain weight administered orally after 22 days; assay type: organism-based; conditions: in vivo, po, 528 h
[23] = test system: Rattus norvegicus; test: Toxicity in diet induced obese Sprague-Dawley rat model assessed as change in kidney weight administered orally after 22 days; assay type: organism-based; conditions: in vivo, po, 528 h
[24] = test system: Rattus norvegicus; test: Toxicity in diet induced obese Sprague-Dawley rat model assessed as change in liver enzyme activity administered orally after 22 days; assay type: organism-based; conditions: in vivo, po, 528 h
[25] = Genotoxicity in micronucleus by micronucleus assay
[26] = test system: Salmonella typhimurium; test: Mutagenic activity in Salmonella Typhimurium by Ames test; assay type: toxicity, organism-based; conditions: salmonella enterica subsp. enterica serovar typhimurium
[27] = organism: Cavia porcellus; test: Cardiotoxicity in guinea pig Langendorff heart model assessed as QT prolongation at >= 0.47 uM; assay type: toxicity
[28] = test system: Rattus norvegicus; test: Antiobesity activity in po dosed diet induced obese Sprague-Dawley rat model assessed as reduction in plasma triglycerides level administered qd for 3 weeks measured on day 21; assay type: functional, organism-based
[29] = target: T1, Diacylglycerol O-acyltransferase 1 (Rattus norvegicus, UniProt Q9ERM3); test: Inhibition of rat DGAT1
T1 sequence (Q9ERM3 whole entry): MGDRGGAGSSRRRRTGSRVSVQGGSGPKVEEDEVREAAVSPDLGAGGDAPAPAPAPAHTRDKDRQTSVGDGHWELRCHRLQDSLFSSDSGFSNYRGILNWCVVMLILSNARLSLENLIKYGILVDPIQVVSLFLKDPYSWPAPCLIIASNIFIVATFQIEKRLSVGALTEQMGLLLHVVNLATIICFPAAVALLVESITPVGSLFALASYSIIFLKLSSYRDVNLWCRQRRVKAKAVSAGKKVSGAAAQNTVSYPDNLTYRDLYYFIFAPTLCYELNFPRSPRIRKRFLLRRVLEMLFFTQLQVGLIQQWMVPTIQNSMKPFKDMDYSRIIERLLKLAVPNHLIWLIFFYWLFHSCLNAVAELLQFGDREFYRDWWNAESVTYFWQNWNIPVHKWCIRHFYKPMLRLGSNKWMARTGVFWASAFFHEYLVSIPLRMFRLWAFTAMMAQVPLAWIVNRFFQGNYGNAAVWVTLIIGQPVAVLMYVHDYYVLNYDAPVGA

[30] = Kinetic solubility of the compound in phosphate buffered saline at pH 6.5; assay type: physicochemical; conditions: read-out: Kinetic_solubility
[31] = Solubility of the compound in simulated gastric fluid; assay type: physicochemical
[32] = Fraction unbound in human serum; assay type: ADME, cell-free

solubility [1]: Insoluble
Structure (SMILES): CCCn1[nH]c(=O)c2cc(NC(=O)c3nc(-c4ccccc4)oc3C(F)(F)F)ccc21

Vd [2]: 1.6 L/kg
AUC [3]: 6160 ng·h/mL
half-life [4]: 1.95 h
Cmax [5]: 10200 ng/mL
AUC [6]: 47200 ng·h/mL
Tmax [7]: 1 h
bioavailability [8]: 77%
Cmax [12]: 2.6 µM
Cmax [13]: 7.8 µM
Cmax [14]: 12.2 µM
IC50 [29]: 120 nM
solubility kinetic [30]: 1 µg/mL (≈ 2.38 µM)
solubility [31]: 770 µg/mL (≈ 1830 µM)
fraction unbound [32]: 0.015
Structure (SMILES): COCCN(C)c1ccc(NC(=O)c2nc(-c3ccccc3)oc2C(F)(F)F)cn1
Activity [9]: Dose-dependent effect
Activity [10]: 4%
Activity [11]: 8%
Activity [15]: 64%
Activity [16]: Active
Activity [17]: Active
Activity [18]: Active
Activity [19]: inactive
Activity [20]: Non-toxic
Activity [21]: Non-toxic
Activity [22]: Non-toxic
Activity [23]: Non-toxic
Activity [24]: Non-toxic
Activity [25]: Non-toxic
Activity [26]: Non-toxic
Activity [27]: Toxic
Activity [28]: Dose-dependent effect

Source: ChEMBL document CHEMBL1921801, “Discovery and optimization of 2-phenyloxazole derivatives as diacylglycerol acyltransferase-1 inhibitors” (Bioorg Med Chem Lett, 2011)
